Experimental data from patent US6573296B2, “Therapeutic quassinoid preparations with antineoplastic, antiviral, and herbistatic activity” (priority 1997, dated 2003).
Like-named read-outs stand apart in the source and are kept apart here.

Experiments:
[1] = test system: human rhinovirus-14; assay: cytopathic effect of rhinovirus in HeLa cells; assay type: cell-based; settings: HeLa cells (Wisconsin strain), visually observed
Experimental: C. HeLa cells (Wisconsin strain, Berlin, Germany) were contacted with human rhinovirus-14. Infected cells (Wisconsin strain) were visually observed. […] HeLa cells were not killed by any compounds used. Cells of other HeLa lines (eg. ATCC CCL2) were killed. Glaucarubolone, simalikalactone D and chaparrinone were tested on cell killing and virus production by primary blood monocytes. All three drugs were tested at five concentrations (0, 10^−9, 10^−8, 10^−7, and 10^−6 M). Drugs were given at different times pre-infection, given at the time of infection, or were administered at different times post-infection.

[2] = test system: porcine pseudorabies virus; settings: rabbit kidney cells, visually monitored
[3] = test system: L1210; assay: soft agar disk diffusion zone of inhibition assay; assay type: cell-based, mice
[4] = test system: C38; assay: soft agar disk diffusion zone of inhibition assay; assay type: cell-based, mice
[5] = test system: CX-1; assay: soft agar disk diffusion zone of inhibition assay; assay type: cell-based, human
Description: (§1) The following human tumors were used: Human adenosquamous lung tumor H-125 (7) and colon tumors H8, HCT-116, and CX-1 were used for in vitro testing only. Each human cell line was maintained in culture until plating was done. HCT-116, H8, and CX-1 were maintained in McCoy's media and heat inactivated fetal bovine serum (11% FBS). It was passaged (1:5 dilution) twice week following enzymatic dissociation using a trypsin/PBS-EDTA mixture. H-125 was maintained in CMRL/Fischer media (1:1) with 11% FBS. It was mechanically dissociated and passaged (3:10 dilution) weekly. For the plating assay, all cells were mechanically dispersed and diluted in the CMRL/Fischer. media mixture.

[6] = test system: leukemia and solid tumor cells; assay: in vitro differential cytotoxicity, solid tumor versus leukemia; assay type: cell-based; settings: for solid tumor selectivity in vitro: solid tumor versus leukemia zones
[7] = test system: colon adenocarcinoma #38 [C38]; assay: in vivo chemotherapy of SC transplanted tumor; parameters: species or system mice; settings: for Cures / MTD Total Dose: C38; for Cures: IV at MTD, cured/total mice; for MTD Total Dose: IV, days: Glaucarubinone 3,5-10, Holacanthone 3-12, Glaucarubolone 3-6, Chaparrinone 3-9; for in vivo activity against C38, in words: mouse
Description: (§2) Mice. Inbreds mice used were C57B1/6, C3H/He, Balb/c, and DBA/2; hybrids were: B6D2F1 (C57B1/6 females×DBA/2 males), and CD2F1 (Balb/c females×DBA/2 males). All mice were obtained from the Frederick Cancer Research Facility, Frederick, Md.
(§3) Tumors were maintained in the mouse strain of origin and were transplanted into either an appropriate F1 hybrid or the strain of origin for therapy trials. All mice were over 17 g at the start of therapy; the range of individual body weights in each experiment was within 2 g. The mice were supplied food and water ad libitum.
(§4) Antitumor Agents. The compound easily dissolved in the diluent which consisted of 3% [V/V (100%-Pure)] Ethanol, 1% (V/V) polyoxyethylanesorbitan monopalmitate (P.O.E.40) and 96% sterile distilled water. The primary route of administration was intravenous (IV).
(§5) […] Chemotherapy. The methods of protocol design, tumor transplantation, drug treatment, endpoint determination, definition of terms, toxicity evaluation, data analysis, quantification of tumor cell kill, and the biologic significance of the drug treatment results with transplantable tumors have been presented. The following is a brief summary of those methods as they apply to the work described.
(§6) The animals necessary to begin an experiment were pooled, implanted bilaterally SC on day 0 with 30 to 60 mg tumor fragments using a 12 gauge trocar, and again pooled before randomization to the various treatment and control group. Chemotherapy was either started within 3 days after tumor implantation while the number of cells per mouse was relatively small (10^7 to 10^8 cells), or allowed to grow to palpation (about 3×10^8 cells) in a more advanced stage trial.
(§7) Tumors were measured with a caliper either once or twice weekly (as needed) until either tumors exceeded 1500 mg or cure was. assured. Tumor weights were estimated from two-dimensional measurements:
(§8) Tumor Weight (mg)=(a×b^2)/2, where a and b are the tumor length and width (mm) respectively.
(§9) Tumor growth delay. (T-C value), where T is the median time (in days) required for the treatment group tumors to reach a predetermined size, and C is the median time (in days) for the control group tumors to reach the same size. Tumor-free survivors were excluded from these calculations (cures were tabulated separately).
(§10) Calculation of tumor cell kill. For SC growing tumors, the log10 cell kill was calculated from the following formula: [formula]
(§11) Where T-C is the tumor growth delay (in days) as described above and Td is the tumor volume doubling time (in days), the latter estimated from the best fit straight line from a log-linear growth plot of the control-group tumors in exponential growth (500 to 1500 mg range). The conversion of the T-C values of log10 cell kill is possible because the Td for tumors regrowing post-treatment approximated the Td values of the tumors in untreated control mice.
(§12) Determination of activity by tumor growth inhibition (T/C value). Measurements were carried out simultaneously in both the treatment and control groups. When the control group tumors reached approximately 750-1500 mg in size (median of group), the median tumor weight of each group was determined (including zeros).

[8] = test system: mammary adenocarcinoma #16/C [Mamm 16/C]; assay: in vivo chemotherapy of SC transplanted tumor; parameters: species or system mice; settings: for MTD Total Dose: MAM 16/C, IV days: Glaucarubinone 1-11, Holacanthone 1-9/, Chaparrinone 1-6; for in vivo activity against Mam 16/C, in words: mouse
Description: as §2, §3, §4, §5, §6, §7, §8, §9, §10, §11, §12

[9] = test system: M17/Adr; settings: multidrug resistant, p-glycoprotein expressing mammary tumor versus leukemia
[10] = biological target: NADH oxidase; assay: NADH oxidase activity of soybean hypocotyl plasma membrane vesicles; assay type: biochemical; settings: Isolated PM vesicles; read-out: ED50, Inhibition of NADH oxidase
[11] = test system: soybean hypocotyls; assay: growth of sections cut from dark-grown soybean hypocotyls; settings: Excised segments of etiolated soybean hypocotyls (18 h)
[12] = test system: Tomato plants; assay: growth of plants in peat after treatment; assay type: in vivo
Experimental: Tomato plants about 3.5 cm high at the time of treatment were grown in peat in a flat of 1.5 inch diameter compartments and were treated with either aqueous simalikalactone (solution QD-1) or aqueous glaucarubolone (solution QD-2) containing 0.1% Triton X-100. The final volume/plant was 10 μ1 for the aqueous solution and 200 µl of the aqueous solution containing Triton X-100. […] With the aqueous treatment, plants also were inhibited but not as markedly as with detergent.

[13] = test system: H8; assay: soft agar disk diffusion zone of inhibition assay; assay type: cell-based, human
Description: as §1

[14] = test system: mammary adenocarcinoma 17/A/ADR [Mamm 17/Adr]; assay: in vivo chemotherapy of SC transplanted tumor; parameters: species or system mice
Description: as §2, §3, §4, §5, §6, §7, §8, §9, §10, §11, §12

[15] = test system: MX-1; assay: soft agar disk diffusion zone of inhibition assay; assay type: cell-based, human; settings: dose line (5, 1 or 0.3 ug/disk) not clear
[16] = test system: C16; assay: in vivo chemotherapy of SC transplanted tumor; parameters: species or system mice
Description: as §2, §3, §4, §5, §6, §7, §8, §9, §10, §11, §12

[17] = test system: pancreatic ductal adenocarcinoma #03 [PO3]; assay: in vivo chemotherapy of SC transplanted tumor; parameters: species or system mice; settings: for % T/C / Cures / Log Cell Kill / MTD Total Dose: PO3
Description: as §2, §3, §4, §5, §6, §7, §8, §9, §10, §11, §12

[18] = test system: P388; assay: soft agar disk diffusion zone of inhibition assay; assay type: cell-based, mice; settings: 0.25 ug/disk
[19] = 5 ug/disk (figure before the colon)
[20] = C16, IV days 3,5,7,9,11,13 (Twice Daily)
[21] = IV days 4,6,8,10,12,14 (Twice Daily)
[22] = IV days: Glaucarubinone 4-15, Peninsularinone 3-13

quassimarine
cytopathic effect of human rhinovirus-14 [1]: Cytopathic effect was delayed | cytopathic effect of porcine pseudorabies virus [2]: Inhibitory effect was also observed

CC(=O)O[C@H]1C(=O)O[C@@H]2C[C@H]3C(C)=CC(=O)[C@@H](O)[C@]3(C)[C@H]3[C@@]4(O)OC[C@]32[C@@H]1[C@@H](C)[C@H]4O [Holacanthone]
zone of inhibition L1210 ([3]; 12 ug/disk): 12:310 ZONE UNITS | zone of inhibition C38 ([4]; 12 ug/disk): 950 ZONE UNITS | zone of inhibition CX-1 ([5]; 12 ug/disk): 900 ZONE UNITS | solid tumor selectivity in vitro [6]: demonstrated solid tumor selectivity | Cures [7]: 0.5 | MTD Total Dose [7]: 188 mg/kg | MTD Total Dose [8]: 80 mg/kg | differential / selectivity for M17/Adr (Mam 17/Adr) [9]: demonstrated selectivity

Ailanthinone
zone of inhibition L1210 ([3]; 2 ug/disk): 2:290 ZONE UNITS | zone of inhibition C38 ([4]; 2 ug/disk): 340 ZONE UNITS | zone of inhibition CX-1 ([5]; 2 ug/disk): 300 ZONE UNITS | solid tumor selectivity in vitro [6]: no solid tumor selectivity

CC[C@@H](C)C(=O)O[C@H]1C(=O)O[C@@H]2C[C@H]3C(C)=CC(=O)[C@@H](O)[C@]3(C)[C@H]3[C@@H](O)[C@H](O)[C@]4(C)OC[C@]32[C@@H]14 [simalikalactone D]
cytopathic effect of human rhinovirus-14 [1]: Cytopathic effect was delayed | EC50 [10]: 0.4 µM | EC50 ([11]; read-out: ED50, Inhibition of 2,4-D (1 μM)-induced growth): 3.5 µM | EC50 ([11]; read-out: ED50, Inhibition of control growth): 2.5 µM | effect on tomato plants, in words ([12]; 1:1000 and 1:10,000 dilutions in detergent solution, 30 days after treatment): still inhibited | effect on tomato plants, in words ([12]; 100 Mm diluted 1:100 in 0.1% Triton X-100): did not grow and eventually died | cytopathic effect of porcine pseudorabies virus [2]: Inhibitory effect was also observed

CC1=CC(=O)[C@@H](O)[C@]2(C)[C@H]3[C@@]4(O)OC[C@@]35[C@@H](C[C@@H]12)OC(=O)C[C@H]5[C@@H](C)[C@H]4O [Chaparrinone]
zone of inhibition L1210 [3, 19]: 5:200 ZONE UNITS | zone of inhibition C38 ([4]; 5 ug/disk): 920 ZONE UNITS | zone of inhibition CX-1 ([5]; 5 ug/disk): 480 ZONE UNITS | zone of inhibition H8 ([13]; 5 ug/disk): 270 ZONE UNITS | solid tumor selectivity in vitro [6]: demonstrated solid tumor selectivity | Cures [7]: 3/5 | MTD Total Dose [7]: 232 mg/kg | in vivo activity against C38, in words [7]: therapeutic activity | MTD Total Dose [8]: 90 mg/kg | in vivo activity against Mam 16/C, in words [8]: activity | % T/C ([14]; MAM 17/AdR, IV days 1-10): 42% | Cures ([14]; MAM 17/AdR, IV days 1-10): 0/5 | MTD Total Dose ([14]; MAM 17/AdR, IV days 1-10): 260 mg/kg | in vivo activity against Mam 17/Adr, in words ([14]; mouse, in vivo): activity | differential / selectivity for M17/Adr (Mam 17/Adr) [9]: demonstrated selectivity

Glaucarubinone
zone of inhibition L1210 ([3]; 0.3 ug/disk): 160 ZONE UNITS | zone of inhibition L1210 ([3]; 1 ug/disk): 300 ZONE UNITS | zone of inhibition L1210 [3, 19]: 600 ZONE UNITS | zone of inhibition C38 ([4]; 0.3 ug/disk): 450 ZONE UNITS | zone differential between C38 and L1210 ([4]; 1 ug/disk): 400 units | zone of inhibition C38 ([4]; 1 ug/disk): 700 ZONE UNITS | zone of inhibition C38 ([4]; 5 ug/disk): 950 ZONE UNITS | zone of inhibition CX-1 ([5]; dose line (5, 1 or 0.3 ug/disk) not clear): 400 ZONE UNITS | zone of inhibition (MX-1), printed in H8 column [15]: 600 (MX-1) ZONE UNITS | zone differential for PO3 ([6]; PO3 versus L1210, compared with 400 units for C38): similar, or greater differential | solid tumor selectivity in vitro [6]: solid tumor selective | % T/C [16, 20]: 42% | Cures [16, 20]: 0/5 | MTD Total Dose [16, 20]: 18 mg/kg | in vivo activity against Col26, in words ([16]; mouse, in vivo): Antitumor activity | Cures [7]: 1/5 | MTD Total Dose [7]: 9.1 mg/kg | in vivo activity against C38, in words [7]: curative activity | MTD Total Dose [8]: 24 mg/kg | in vivo activity against Mam 16/C, in words [8]: Antitumor activity | % T/C [17, 21]: 0% | Cures [17, 21]: 0.6 | Log Cell Kill [17, 21]: 3.1 | MTD Total Dose [17, 21]: 16 mg/kg | % T/C [17, 22]: 15% | Cures [17, 22]: 1/6 | Log Cell Kill [17, 22]: 1.5 | MTD Total Dose [17, 22]: 16 mg/kg | in vivo activity against PO3, in words ([17]; mouse, in vivo): curative activity | differential / selectivity for M17/Adr (Mam 17/Adr) [9]: no differential

(−)-Peninsularinone
zone of inhibition L1210 ([3]; 0.25 ug/disk): 0.25:310 ZONE UNITS | zone of inhibition H8 ([13]; 0.25 ug/disk): 510 ZONE UNITS | zone of inhibition (P388), printed in C38 column [18]: 700 (P388) ZONE UNITS | % T/C [17, 22]: 3% | Cures [17, 22]: 0/5 | Log Cell Kill [17, 22]: 2.0 | MTD Total Dose [17, 22]: 4.3 mg/kg | cytopathic effect of human rhinovirus-14 [1]: Cytopathic effect was delayed | cytopathic effect of porcine pseudorabies virus [2]: Inhibitory effect was also observed
